# Values of other authors, collected in paper PMC12296474, “Nano-Amounts of Glucagon Premixed With Fast-Acting Insulin Lispro: Effect on Insulin Absorption in Pigs” (Current Therapeutic Research, Clinical and Experimental, 2025).
# Test system: subcutaneous blood flow
# Details: healthy subjects
# Method: We focused our proof-of-concept experiments on adding nanogram doses of glucagon to Lyumjev^Ⓡ, the most fast-acting insulin formulation available on the market. As previously discussed, we believe glucagon may increase insulin absorption through significant but very localized subcutaneous vasodilation. Therefore, it is noteworthy that when glucagon was added to Lyumjev^Ⓡ, an insulin formulation that already contains 10 ng of the vasodilator treprostinil per unit of insulin, we observed even faster insulin absorption. This effect was not observed in experiments with glucagon added to Humalog^Ⓡ. ...
substance,measurement,value
glucagon,Enhancement of subcutaneous blood flow,4% to 500
